{
  "source": "the NIST ThermoML archive (doi:10.1016/j.jct.2011.12.024)",
  "assay": "refractive index (other wavelength) (dimensionless); xn = mol fraction of the nth substance listed",
  "details": "101.33 kPa, Liquid, Wavelength=632.8 nm, Standard Abbe refractometry",
  "note": "Numbers after ± are expanded uncertainties.",
  "data": [
    {"smiles": "COC(=O)CCCCC(=O)OC", "note": "[dimethyl 1,6-hexanedioate] + CCCCCCC", "values": [
      {"measurement": "refractive index", "setting": "289.5 K, x1 = 1", "result": "1.4287 ± 0.0004"},
      {"measurement": "refractive index", "setting": "291.65 K, x1 = 1", "result": "1.4279 ± 0.0004"},
      {"measurement": "refractive index", "setting": "292.22 K, x1 = 0.1018", "result": "1.3909 ± 0.0005"},
      {"measurement": "refractive index", "setting": "292.85 K, x1 = 0.5999", "result": "1.412 ± 0.0005"},
      {"measurement": "refractive index", "setting": "293.07 K, x1 = 0.7009", "result": "1.4159 ± 0.0005"},
      {"measurement": "refractive index", "setting": "293.2 K, x1 = 0.8979", "result": "1.4236 ± 0.0005"},
      {"measurement": "refractive index", "setting": "293.27 K, x1 = 0.1018", "result": "1.3904 ± 0.0005"},
      {"measurement": "refractive index", "setting": "293.28 K, x1 = 0.8048", "result": "1.42 ± 0.0005"},
      {"measurement": "refractive index", "setting": "293.87 K, x1 = 0.5999", "result": "1.4115 ± 0.0005"},
      {"measurement": "refractive index", "setting": "294.11 K, x1 = 0.8979", "result": "1.4232 ± 0.0005"},
      {"measurement": "refractive index", "setting": "294.12 K, x1 = 0.7009", "result": "1.4155 ± 0.0005"},
      {"measurement": "refractive index", "setting": "294.22 K, x1 = 0.8048", "result": "1.4196 ± 0.0005"},
      {"measurement": "refractive index", "setting": "294.37 K, x1 = 0.1018", "result": "1.3898 ± 0.0005"},
      {"measurement": "refractive index", "setting": "294.86 K, x1 = 0.5999", "result": "1.4111 ± 0.0005"},
      {"measurement": "refractive index", "setting": "294.9 K, x1 = 1", "result": "1.4265 ± 0.0004"},
      {"measurement": "refractive index", "setting": "294.96 K, x1 = 0.2007", "result": "1.398 ± 0.0005"},
      {"measurement": "refractive index", "setting": "295.01 K, x1 = 0.8979", "result": "1.4228 ± 0.0005"},
      {"measurement": "refractive index", "setting": "295.12 K, x1 = 0.8048", "result": "1.4192 ± 0.0005"},
      {"measurement": "refractive index", "setting": "295.15 K, x1 = 0.7009", "result": "1.415 ± 0.0005"},
      {"measurement": "refractive index", "setting": "295.39 K, x1 = 0.1018", "result": "1.3893 ± 0.0005"},
      {"measurement": "refractive index", "setting": "295.61 K, x1 = 0.3992", "result": "1.402 ± 0.0004"},
      {"measurement": "refractive index", "setting": "295.8 K, x1 = 0.4976", "result": "1.4062 ± 0.0005"},
      {"measurement": "refractive index", "setting": "295.83 K, x1 = 0.5999", "result": "1.4107 ± 0.0005"},
      {"measurement": "refractive index", "setting": "295.94 K, x1 = 0.8979", "result": "1.4224 ± 0.0005"},
      {"measurement": "refractive index", "setting": "295.95 K, x1 = 0.2007", "result": "1.3975 ± 0.0005"},
      {"measurement": "refractive index", "setting": "296.09 K, x1 = 0.8048", "result": "1.4188 ± 0.0005"},
      {"measurement": "refractive index", "setting": "296.15 K, x1 = 0.7009", "result": "1.4146 ± 0.0005"},
      {"measurement": "refractive index", "setting": "296.45 K, x1 = 0.1018", "result": "1.3888 ± 0.0007"},
      {"measurement": "refractive index", "setting": "296.65 K, x1 = 0.3992", "result": "1.4016 ± 0.0004"},
      {"measurement": "refractive index", "setting": "296.81 K, x1 = 0.5999", "result": "1.4103 ± 0.0005"},
      {"measurement": "refractive index", "setting": "296.89 K, x1 = 0.8979", "result": "1.422 ± 0.0005"},
      {"measurement": "refractive index", "setting": "296.9 K, x1 = 0.4976", "result": "1.4056 ± 0.0005"},
      {"measurement": "refractive index", "setting": "296.91 K, x1 = 0.2007", "result": "1.3971 ± 0.0005"},
      {"measurement": "refractive index", "setting": "296.94 K, x1 = 1", "result": "1.4257 ± 0.0004"},
      {"measurement": "refractive index", "setting": "297.08 K, x1 = 0.8048", "result": "1.4184 ± 0.0005"},
      {"measurement": "refractive index", "setting": "297.23 K, x1 = 0.7009", "result": "1.4142 ± 0.0005"},
      {"measurement": "refractive index", "setting": "297.45 K, x1 = 0.1018", "result": "1.3883 ± 0.0007"},
      {"measurement": "refractive index", "setting": "297.64 K, x1 = 0.3992", "result": "1.4011 ± 0.0004"},
      {"measurement": "refractive index", "setting": "297.81 K, x1 = 0.8979", "result": "1.4216 ± 0.0005"},
      {"measurement": "refractive index", "setting": "297.87 K, x1 = 0.5999", "result": "1.4098 ± 0.0005"},
      {"measurement": "refractive index", "setting": "297.95 K, x1 = 0.4976", "result": "1.4052 ± 0.0005"},
      {"measurement": "refractive index", "setting": "298.02 K, x1 = 0.2007", "result": "1.3965 ± 0.0004"},
      {"measurement": "refractive index", "setting": "298.02 K, x1 = 0.8048", "result": "1.418 ± 0.0005"},
      {"measurement": "refractive index", "setting": "298.15 K, x1 = 0.7009", "result": "1.4138 ± 0.0005"},
      {"measurement": "refractive index", "setting": "298.66 K, x1 = 0.3992", "result": "1.4007 ± 0.0005"},
      {"measurement": "refractive index", "setting": "298.92 K, x1 = 0.4976", "result": "1.4048 ± 0.0005"},
      {"measurement": "refractive index", "setting": "299.11 K, x1 = 0.2007", "result": "1.396 ± 0.0004"},
      {"measurement": "refractive index", "setting": "299.7 K, x1 = 0.3992", "result": "1.4002 ± 0.0005"},
      {"measurement": "refractive index", "setting": "299.93 K, x1 = 0.4976", "result": "1.4043 ± 0.0005"},
      {"measurement": "refractive index", "setting": "300.15 K, x1 = 0.2007", "result": "1.3955 ± 0.0004"},
      {"measurement": "refractive index", "setting": "300.67 K, x1 = 0.3992", "result": "1.3997 ± 0.0005"},
      {"measurement": "refractive index", "setting": "300.93 K, x1 = 0.4976", "result": "1.4039 ± 0.0005"},
      {"measurement": "refractive index", "setting": "301.21 K, x1 = 0.2007", "result": "1.395 ± 0.0004"},
      {"measurement": "refractive index", "setting": "301.74 K, x1 = 0.3992", "result": "1.3992 ± 0.0005"},
      {"measurement": "refractive index", "setting": "301.98 K, x1 = 0.4976", "result": "1.4034 ± 0.0005"}
    ]}
  ]
}
